What is called half-life is how long it takes for the measured level to halve. The low end stands for rapid decline, the high end for slow decline. In general, IC50 refers to the concentration at which inhibition is half-maximal. Usually pIC50 stands for the negative decadic logarithm of the IC50, by convention in mol/L. A lower pIC50 goes with a large IC50.

The record followed here is ChEMBL document CHEMBL1136345, “Heterocyclic ketones as inhibitors of histone deacetylase” (Bioorg Med Chem Lett, 2003).

pIC50: −log10 of the molar value.

System in the first data set: not listed separately
Kind of data set: Half-life was determined. It counts as ADME. The following applies: human.
In the case of `O=C(CCCCCCOc1cccc(-c2ccccc2)c1)c1ncco1`, the half-life was 12.6 min. Same read-out and setting: in the case of `O=C(CCCCCCOc1ccc(-c2ccccc2)cc1)c1ncco1` it was 10.8 min.

Another data set concerns the target Histone deacetylase. Nature of the data set: In vitro inhibition of Histone deacetylase in K 562 erythroleukemia cells.
Settings: not given
Further details: species or system Homo sapiens.
With `O=C(NCCCCCCC(=O)c1ncco1)c1cc2ccccc2[nH]1`, the 50% inhibitory concentration (IC50) was 90 nM. Turning to `O=C(CCCCCCC(=O)c1ncco1)Nc1cccc(-c2ccccc2)c1`, the concentration for half-maximal inhibition (IC50) came to 60 nM. The same measure, in the same setting: in the case of `O=C(CCCCCCOc1cccc(-c2ccccc2)c1)c1ncco1` it was 620 nM.

On to `O=C(CCCCC/C=C/c1ccc(-c2ccccc2)cc1)c1ncco1`, for which the half-inhibitory concentration (IC50) came to 990 nM. On the same count and under the same terms, in the case of `O=C(CCCCCCC(=O)c1ncco1)Nc1ccc(Oc2ccccc2)cc1` it was 580 nM; in that of `O=C(CCCCCCOc1ccc(-c2ccccc2)cc1)c1nnn[nH]1`, 2000 nM. Same read-out and setting: next, `O=C(CCCCCCOc1ccc(-c2ccccc2)cc1)c1ncco1`: 1100 nM; `O=C(CCCCCC(=O)c1ncco1)NCc1ccc(Cl)cc1`: 6400 nM; `COc1ccc(-c2csc(NC(=O)CCCCCCC(=O)c3ncco3)n2)cc1`: 30 nM.

With `O=C(CCCCCCOc1ccc(-c2ccccc2)cc1)C1=NCCO1`, the concentration for half-maximal inhibition (IC50) came to 1800 nM. For `O=C(CCCCCCC(=O)c1ncco1)Nc1ccc(Cl)cc1`, the half-inhibitory concentration (IC50) turned out to be 320 nM.

For `O=C(CCCCCC(=O)c1ncco1)Nc1cccc(-c2ccccc2)c1`, the IC50 came out at 310 nM. Still for that read-out and setting: in the case of `O=C(CCCCCCOc1ccc2ccccc2c1)c1ncco1` it was 520 nM.

In turn, `O=C(CCCCCCS(=O)(=O)c1ccc2ccccc2c1)c1ncco1` came in with a 50% inhibitory concentration (IC50) of 610 nM. Still for that read-out and setting: next, `O=C(CCCCCCNc1ccc2ccccc2c1)c1ncco1`: 430 nM. The same measure, in the same setting: in the case of `O=C(CCCCCCSc1ccc2ccccc2c1)c1ncco1` it was 540 nM; in that of `O=C(NCCCCCC(=O)c1ncco1)c1cc2ccccc2[nH]1`, 340 nM. `O=C(CCCCCC(=O)c1ncco1)Nc1ccc(Cl)cc1` displayed an IC50 of 1500 nM.

For the next data set, the target named is Histone deacetylase. Further details: species or system Homo sapiens.
Settings: not given
Take `CNC(=O)C(=O)CCCCCCOc1ccc(-c2ccccc2)cc1`: the half-inhibitory concentration (IC50) turned out to be 110 nM.

System in another data set: not listed separately
Nature of the data set: Anti-proliferative activity against MDA-435 cells mediated by HDAC inhibition. It counts as functional, cell-based. The conditions noted are these: Homo sapiens, MDA435.
Consider `COc1ccc(-c2csc(NC(=O)CCCCCCC(=O)c3ncco3)n2)cc1`, for which the pIC50 is 5.64.

Another data set concerns the target Histone deacetylase. Kind of data set: Inhibitory activity against Histone deacetylase (HDAC) in K 562 erythroleukemia cells (Radioactivity based HDAC assay).
Settings: not given
Further details: species or system Homo sapiens.
As for `O=C(CCCCCC(=O)c1ncco1)NNc1ccc(Cl)cc1`, the half-maximal inhibitory concentration (IC50) is greater than 10000 nM.

As to `OC(CCCCCCOc1cccc(-c2ccccc2)c1)c1ncco1` (centres undefined), the IC50 is greater than 50000 nM.

Turning to `O=C(CCCCCCOc1ccc(-c2ccccc2)cc1)c1ccccn1`, the 50% inhibitory concentration (IC50) is greater than 50000 nM.

Regarding `O=C(CCCCCCOc1ccc(-c2ccccc2)cc1)c1nc2ccccc2o1`, the 50% inhibitory concentration (IC50) was greater than 50000 nM.

Take `O=C(CCCCCCC(=O)c1ncco1)NNC(=O)c1ccc(-c2ccccc2)cc1`: the IC50 turned out to be 1830 nM. In the case of `Cn1cncc1C(=O)CCCCCCOc1ccc(-c2ccccc2)cc1`, the half-maximal inhibitory concentration (IC50) is greater than 50000 nM. Regarding `Cn1ccnc1C(=O)CCCCCCOc1ccc(-c2ccccc2)cc1`, the 50% inhibitory concentration (IC50) was greater than 50000 nM.

Turning to `O=C(CCCCCCOc1ccc(-c2ccccc2)cc1)c1ncc[nH]1`, the 50% inhibitory concentration (IC50) was greater than 50000 nM. Consider `O=C(CCCCCCc1nnc(-c2ccc(-c3ccccc3)cc2)o1)c1ncco1`, for which the IC50 came out at 250 nM. Still for that read-out and setting: in the case of `O=C(CCCCCCOc1ccc(-c2ccccc2)cc1)c1nccs1` it was greater than 50000 nM; in that of `O=C(c1ncco1)[C@@H]1C[C@H]1CCCCOc1ccc(Oc2ccccc2)cc1`, greater than 50000 nM; in that of `O=C(CCCCCCOc1ccc(-c2ccccc2)cc1)c1nc2ncccc2o1`, greater than 50000 nM.
